Reference: patent US12697336B2, “RUC-4 formulations” (CeleCor Therapeutics, Inc., priority 2021, dated 2026)

Tests used:
[1] = Example 1 formulation stability test: overnight (~18 hours) storage at −20° C., 5° C. and 20° C., visual observation; assay type: physicochemical; conditions: pH 4.75
Description: Formulation solutions as described in Table 3 below were prepared and divided in to three equal portions that were stored overnight (~18 hours) at −20° C., 5° C. and 20° C., respectively. The formulations were observed, and the characteristics reported in Table 3 were noted, immediately for RT, immediately upon removing 5° C. formulations from refrigerator, and upon thawing of −20° C. formulations. Clear solutions of Compound (1) were obtained at pH 4.75 at concentrations of ≤17.5 mg/mL.

[2] = Solubility of Compound (1) in acetic acid; assay type: physicochemical; conditions: organic solvent or mixture, read-out: Solubility in acetic acid (obtainable solution concentration)
Description: In particular, solutions of greater than 300 mg/mL are obtainable.

Concentration at which clear solutions were obtained [1]: ≤ 17500 µg/mL
solubility [2]: > 300 mg/mL
SMILES: NCC(=O)Nc1cncc(-c2nn3c(=O)cc(N4CCNCC4)nc3s2)c1 [Compound (1)]
